# Tests used:
# Hakai-MDCK cells = test: E-cadherin protein levels, Hakai-MDCK; format: cell-based; details: mesenchymal Hakai-MDCK cells, no basal E-cadherin
# Experimental: For western blot analysis, cells were treated with the indicated inhibitors for 48 h and the whole cell extracts were obtained as described previously. Twenty micrograms of lysates were resolved on a 10% polyacrilamide SDS-PAGE followed by western blot analysis performed as previously described. For immunofluorescence assays cells were grown for 24 h on glass coverslips and treated with the indicated inhibitors for 48 h. Cells were fixed with 4% PFA for 15 min, permeabilized with 0.5% […] and incubated with E-cadherin antibody for 2 h. Coverslips were incubated with fluorescein-tagged secondary antibody (Dakopatts, Sweden) for […]. Finally coverslips were mounted with ProLong Gold antifade reagent (LifeTech, UK) and images were taken in epifluorescence microscope (Olympus) using 40× objective.
# [1] = test system: bladder cancer 5637 cells; test: BrdU proliferation assay, 5637; format: cell-based, human; details: 48 h
# Experimental: (§1) For BrdU assays, 1×10^4 of indicated cells were plated per well into a 96-well plate. After 24 h, cells were treated with the indicated inhibitors for 48 h. Three independent experiments were plated with six replicates per each condition. Cells were treated with […] BrdU for 2 h. BrdU incorporation into newly synthesized DNA was measured using a cell proliferation colorimetric immunoassay kit according to the manufacturer's instructions (Roche, Switzerland). Results are expressed as mean±S.D. Results are represented as percentage of positive cells (mean±S.D) of three independent experiments.
# liver cancer HepG2 cells = test: BrdU proliferation assay, HepG2; format: cell-based, human; details: 48 h
# Experimental: as §1
# [2] = molecular target: T1, E3 ubiquitin-ligase Hakai (Mus musculus, UniProt Q9JIY2); test: Hakai-dependent ubiquitination assay in 293T cells transfected with Flag-Hakai, v-Src and HA-ubiquitin; format: cell-based; details: 293T cells transfected with Src, treated 36 h
# T1 construct: expressed in transfected cells; host or cells: HEK293T (293) cells, co-transfected with v-Src and HA-ubiquitin, and in A3 also with myc-E-cadherin
# T1 sequence (Q9JIY2 1-491): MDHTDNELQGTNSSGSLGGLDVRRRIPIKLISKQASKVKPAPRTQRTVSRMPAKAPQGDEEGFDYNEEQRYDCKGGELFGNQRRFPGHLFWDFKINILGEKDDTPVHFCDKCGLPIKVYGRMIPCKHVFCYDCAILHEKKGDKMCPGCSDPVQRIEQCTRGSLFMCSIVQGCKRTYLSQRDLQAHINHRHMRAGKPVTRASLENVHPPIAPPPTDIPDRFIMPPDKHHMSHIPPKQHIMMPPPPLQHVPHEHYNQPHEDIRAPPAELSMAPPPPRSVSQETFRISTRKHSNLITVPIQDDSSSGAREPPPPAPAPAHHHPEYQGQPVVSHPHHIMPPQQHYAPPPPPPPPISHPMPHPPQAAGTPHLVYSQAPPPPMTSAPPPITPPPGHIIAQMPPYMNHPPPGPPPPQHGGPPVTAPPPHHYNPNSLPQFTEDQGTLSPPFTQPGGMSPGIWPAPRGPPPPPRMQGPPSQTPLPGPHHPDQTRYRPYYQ
# Experimental: For ubiquitination assays, 750.000 HEK293T cells were seeded in 6-well cell culture plates and after 24 h were transfected with 0.25 μg Src, 0.75 μg Flag-Hakai, and 0.5 μg HA-ubiquitin with Lipofectamin 2000 (Invitrogen, UK). Six hours after transfection cells were treated with indicated concentrations of Hakin-1, Hakin-5 or the rest of the analogues tested for 36 h. Whole cell extracts were obtained in lysis buffer (20 mM Tris-HCl pH 7.5, 150 mM NaCl and 1% Triton X-100) containing 10 μg/ml leupeptin, 10 μg/ml aprotinin and 1 mM phenylmethanesulphonyl fluoride (PMSF), supplemented with 10 mM N-ethylmaleimide. Cells were harvested and subjected to western blotting using anti-HA antibody to detect ubiquitination.
# LoVo cells = test: Invasion assay, LoVo; format: cell-based; details: treated 48 h before seeding
# Experimental: For invasion assays, cells were treated with Hakin-1 or DMSO as vehicle for 48 h using 1% FBS during the last 24 hours. 3×10^5 MDCK, MDCK-Hakai or LoVo cells were seeded in a cell invasion chamber (Cell invasion assaykit, Chemicon International) containing medium with 2% FBS. After 72 hours for MDCK and MDCK-Hakai Invasive and 16 h for LoVo cells, invasive cells invaded that reach the lower chamber containing 30% FBS were fixed and stained with crystal violet (Sigma Aldrich, St Louis, Mo.) following the manufacturer's specifications. For migration assays, HT29 cells were cultured with Hakin-1 or DMSO as vehicle for 48 h, using medium without serum the last 24 h. In the cell migration chamber were seeded 3×10^5 HT29 cells (Cell migration kit, Millipore, Bedford, Mass.) containing medium without serum. After 16 h, migrated cells in the lower chamber containing serum with 30% FBS were stained with crystal violet and counted following the manufacturer's specifications. For both invasion and migration assays cells were counted in five fields photographed with an Olympus microscope using a 20× objective, experiments were performed in triplicates for each condition and the assays were repeated at least three times. Results are expressed as mean±SD.
# breast cancer MCF7 cell = test: BrdU proliferation assay, MCF7; format: cell-based, human; details: 48 h
# Experimental: as §1
# [3] = test system: normal epithelial MDCK cell line; test: MTT cell viability assay, MDCK; format: cell-based; details: normal epithelial MDCK compared to Hakai-MDCK; 72 h
# Experimental: For cytotoxicity assays, 1×10^4 cells were seeded per well into a 96-well plate. After 24 h cells were treated with the indicated inhibitors for 72 h and a MTT colorimetric cell viability assay was performed following manufacturer's instructions (Sigma Aldrich, St Louis, Mo.). Absorbance was measured at 570 and 630 nm using a Multiskan Plus Reader (Nanoquant Infinite M200 Tecan Trading AG, Switzerland). Dose-response curves were designed with Graph Pad Prism Software and the half-maximal inhibitory concentration (IC50) values were calculated. Represented data are the mean±SEM of at least three independent experiments with six replicates per condition.
structure (smiles),measurement,setting,value
"O=C(O)c1ccc(-n2nnnc2SCC(=O)c2ccc([N+](=O)[O-])cc2)cc1 [Hakin-1, 4-(5-{[2-(4-nitrophenyl)-2-oxoethyl]thiol}-1H-tetrazol-1-yl)benzoic acid]",E-cadherin protein levels,Hakai-MDCK cells,no recovery was detected
same,cell proliferation (BrdU),[1],inhibits cell proliferation
same,cell proliferation (BrdU),liver cancer HepG2 cells,inhibits cell proliferation
same,Hakai protein levels,[2],no effect was seen
same,"ubiquitination mediated by Hakai (western blotting, anti-HA)",[2]; DMSO as control,strongly reduces the ubiquitination mediated by Hakai in a doses dependent-manner
same,cell invasion,LoVo cells,strongly reduced cell invasion
same,cell proliferation (BrdU),breast cancer MCF7 cell,inhibits cell proliferation
same,"sensitivity to treatment (cell viability, MTT)",[3],more resistant
